Results taken from US5010058A, “3,5,6-substituted derivatives of 1,2-O-isopropylidene-α,D-glucofuranose and intermediates for preparing these derivatives” (501 Greenwich Pharmaceuticals Incorporated, priority 1989, dated 1991).
Like-named read-outs stand apart in the source and are kept apart here.

System: normal spleen cells / splenic T-lymphocytes (Con-A stimulated)
Experiment: Con-A blastogenic response of normal spleen cells (3H-thymidine incorporation)
Format: cell-based, mouse (C57Bl/6)
Conditions: for Blastogenic response of normal spleen cells to Con-A; % effect / inhibition at 1 µg/mL / inhibition at 10 µg/mL / inhibition at 25 µg/mL / inhibition at 100 µg/mL / inhibition at 300 µg/mL / inhibition at 750 µg/mL: percent change from no compound; for Blastogenic response of normal spleen cells to Con-A; % effect: 4320 min; for Blastogenic response of normal spleen cells to Con-A: triplicates ± SD; for inhibition at 1 µg/mL / inhibition at 10 µg/mL / inhibition at 25 µg/mL / inhibition at 100 µg/mL / inhibition at 300 µg/mL / inhibition at 750 µg/mL: Mus musculus, T-lymphocyte, 72 h, read-out: Blastogenic response of normal spleen cells to Con-A, % effect
Description: A simple method is used to screen compounds for their ability to modulate T-lymphocyte activity which comprises assessing the capacity of the compounds to alter the activation of murine spleen cells in response to T-lymphocyte mitogen activators, such as concanavalin-A (Con-A). The method used to measure the effects of the compounds of the present invention on the blastogenic response of spleen cells to the T-lymphocyte mitogen, (i.e., Con-A), is as follows.
Spleen cells were removed from normal C57Bl/6 mice and homogenized to obtain a single cell suspension. Erythrocytes were lysed by hypotonic shock. Upon determination of the viability and concentration of the remaining lymphoid cells, they were adjusted to a concentration of 4×10^6 /ml. These spleen cells (2×10^5 cells per […]) were seeded into wells of microtiter plates with the compounds of the present invention having the following dose concentrations:
Con-A was also added to these cultures at a final concentration of […]. These cells were cultured for 3 days at 37° C. in a humidified atmosphere of 5% CO2 in air. For the last 18 hours of culture, […] H-thymidine was added to each well. The cells were then precipitated by a multichannel harvester. The amount of ^3 H-thymidine incorporated by the cultured cells were measured in a liquid scintillation counter (Disintegrations per min., DPM). All assays were conducted in triplicate.
The incubation medium used for the blastogenesis assays was RPMI-1640 medium containing 10% fetal bovine serum, […] streptomycin, 100 U/ml penicillin, […] Hepes buffer solution, 5×10^-5 M 2-mercaptoethanol and 2 mM glutamine.
^a Experimental compounds were first suspended in DMSO or ethanol,
^b The effect of experimental compounds on the blastogenic response o

[1] = Con-A 1 ug/ml, compound 1 ug/ml
[2] = Con-A 1 ug/ml, compound 10 ug/ml
[3] = Con-A 1 ug/ml, compound 25 ug/ml
[4] = Con-A 1 ug/ml, compound 100 ug/ml
[5] = Con-A 1 ug/ml, compound 300 ug/ml
[6] = Con-A 1 ug/ml, compound 750 ug/ml
[7] = Con-A 4 ug/ml, compound 1 ug/ml
[8] = Con-A 4 ug/ml, compound 10 ug/ml
[9] = Con-A 4 ug/ml, compound 25 ug/ml
[10] = Con-A 4 ug/ml, compound 100 ug/ml
[11] = Con-A 4 ug/ml, compound 300 ug/ml
[12] = Con-A 4 ug/ml, compound 750 ug/ml

Compound	Blastogenic response of normal spleen cells to Con-A [1]	Blastogenic response of normal spleen cells to Con-A [2]	Blastogenic response of normal spleen cells to Con-A [3]	Blastogenic response of normal spleen cells to Con-A [4]	Blastogenic response of normal spleen cells to Con-A [5]	Blastogenic response of normal spleen cells to Con-A [6]	Blastogenic response of normal spleen cells to Con-A [7]	Blastogenic response of normal spleen cells to Con-A [8]	Blastogenic response of normal spleen cells to Con-A [9]	Blastogenic response of normal spleen cells to Con-A [10]	Blastogenic response of normal spleen cells to Con-A [11]	Blastogenic response of normal spleen cells to Con-A [12]	inhibition at 1 µg/mL [1] [%]	inhibition at 10 µg/mL [2] [%]	inhibition at 25 µg/mL [3] [%]	inhibition at 100 µg/mL [4] [%]	inhibition at 300 µg/mL [5] [%]	inhibition at 750 µg/mL [6] [%]	inhibition at 1 µg/mL [7] [%]	inhibition at 10 µg/mL [8] [%]	also measured
CCCCCCCNC[C@H]1OC(C)(C)O[C@@H]2[C@H]3OC(C)(C)O[C@H]3O[C@@H]21 [Ex. 1, 1,2:3,5-Di-O-isopropylidene-6-deoxy-6-aminoheptyl-α, D-glucofuranose]	93,328 ± 15,583 cpm	53,439 ± 9,464 cpm	26,920 ± 10,528 cpm	10,705 ± 9,501 cpm	5,398 ± 4,008 cpm	19,688 ± 7,148 cpm	116,263 ± 2,521 cpm	32,032 ± 1,999 cpm	6,201 ± 1,410 cpm	4,880 ± 3,619 cpm	3,097 ± 573 cpm	2,089 ± 35 cpm									Blastogenic response of normal spleen cells to Con-A; % effect [1]: +29%; Blastogenic response of normal spleen cells to Con-A; % effect [2]: -26%; Blastogenic response of normal spleen cells to Con-A; % effect [3]: -63%; Blastogenic response of normal spleen cells to Con-A; % effect [4]: -85%; Blastogenic response of normal spleen cells to Con-A; % effect [5]: -93%; Blastogenic response of normal spleen cells to Con-A; % effect [6]: -87%; Blastogenic response of normal spleen cells to Con-A; % effect [7]: +20%; Blastogenic response of normal spleen cells to Con-A; % effect [8]: -67%; Blastogenic response of normal spleen cells to Con-A; % effect [9]: -94%; Blastogenic response of normal spleen cells to Con-A; % effect [10]: -95%; Blastogenic response of normal spleen cells to Con-A; % effect [11]: -97%; Blastogenic response of normal spleen cells to Con-A; % effect [12]: -98%
CCCCCCCNCC(O)C1OC2OC(C)(C)OC2C1OCCCCCCC [Ex. 4, 1,2-O-Isopropylidene-3-O-(n-heptyl)-6-deoxy-6-aminoheptyl-α, D-glucofuranose]	22,026 ± 9,838 cpm	3,406 ± 422 cpm	3,575 ± 827 cpm	5,241 ± 2,071 cpm	9,102 ± 6,857 cpm	3,762 ± 1,201 cpm	41,151 ± 9,885 cpm	7,789 ± 7,636 cpm	13,114 ± 8,696 cpm	7,102 ± 6,851 cpm	4,919 ± 645 cpm	3,128 ± 99 cpm	70	95	95	93	87	95	58	92	inhibition at 25 µg/mL [9]: 86%; inhibition at 100 µg/mL [10]: 93%; inhibition at 300 µg/mL [11]: 95%; inhibition at 750 µg/mL [12]: 97%
CCCCCCCOC(C)C1OC2OC(C)(C)OC2C1O [Ex. 5, 1,2-O-Isopropylidene-5-O-n-heptyl-6-deoxy α, D-glucofuranose]	91,612 ± 15,530 cpm	79,822 ± 15,967 cpm	63,177 ± 13,102 cpm	8,553 ± 9,274 cpm	8,698 ± 786 cpm	9,487 ± 7,951 cpm	116,377 ± 12,433 cpm	92,190 ± 13,256 cpm	62,068 ± 3,736 cpm	2,299 ± 490 cpm	5,932 ± 2,770 cpm	4,494 ± 2,952 cpm	-27	-11	13	88	88	87	-20	5	inhibition at 25 µg/mL [9]: 36%; inhibition at 100 µg/mL [10]: 98%; inhibition at 300 µg/mL [11]: 94%; inhibition at 750 µg/mL [12]: 95%
CCCCCCCOC(C)C1OC2OC(C)(C)OC2C1OCCCN(C)C [Ex. 6, 1,2-O-Isopropylidene-3-O-3'-(N'-N'-dimethylaminopropyl)-5-O-n-heptyl-6-deoxy-α,D-glucofuranose]	86,406 ± 16,348 cpm	12,670 ± 6,997 cpm	5,399 ± 3,253 cpm	6,597 ± 2,887 cpm	3,693 ± 340 cpm	3,709 ± 281 cpm	75,689 ± 8,498 cpm	4,693 ± 1,930 cpm	6,187 ± 6,859 cpm	6,741 ± 4,224 cpm	3,756 ± 923 cpm	2,933 ± 1,383 cpm	-20	82	93	91	95	95	22	95	inhibition at 25 µg/mL [9]: 94%; inhibition at 100 µg/mL [10]: 93%; inhibition at 300 µg/mL [11]: 96%; inhibition at 750 µg/mL [12]: 97%
